Assay results taken from patent publication US20160038468A1 (priority 2013, published 2016).
In brackets after ≈: the same amount, converted by molar mass. Read-outs that look alike come from different tables or passages of the source.

How the values were obtained:
Type in all cases: cell-based
[1] = system: Megasphaera-like bacteria; assay: Agar dilution MIC (CLSI), Megasphaera-like bacteria vaginal isolates; settings: read-out: Minimal Inhibitory Concentration (MIC)
[2] = system: Peptoniphilus lacrimalis; assay: Agar dilution MIC (CLSI), Peptoniphilus lacrimalis vaginal isolates; settings: for Number of strains with indicated MIC: 20 samples; for MIC: read-out: Minimal Inhibitory Concentration (MIC)
[3] = system: Mobiluncus all species; assay: Agar dilution MIC (CLSI), Mobiluncus all species
[4] = system: M. curtisii; assay: Agar dilution MIC (CLSI), M. curtisii vaginal isolates; settings: for Number of strains with indicated MIC: 14 samples
[5] = system: Finegoldia magna; assay: Agar dilution MIC (CLSI), Finegoldia magna vaginal isolates; settings: for MIC: read-out: Minimal Inhibitory Concentration (MIC); for Number of strains with indicated MIC: 20 samples
[6] = Peptoniphilus lacrimalis, # tested 20

CO[C@H]1/C=C/O[C@@]2(C)Oc3c(C)c(O)c4c(O)c(c5c(nc6cc(C)ccn65)c4c3C2=O)NC(=O)/C(C)=C\C=C\[C@H](C)[C@H](O)[C@@H](C)[C@@H](O)[C@@H](C)[C@H](OC(C)=O)[C@@H]1C [Rifaximin]
MIC ([1]; isolate 426788 C): 0.015 µg/mL (≈ 0.0191 µM) | MIC ([1]; isolate 427470 10): 0.015 µg/mL (≈ 0.0191 µM) | MIC ([1]; isolate 427490 2u): 0.015 µg/mL (≈ 0.0191 µM) | MIC ([1]; isolate 427509 A): 0.015 µg/mL (≈ 0.0191 µM) | MIC ([1]; isolate 427522 8): 0.015 µg/mL (≈ 0.0191 µM) | MIC ([1]; isolate 600770 O): 0.015 µg/mL (≈ 0.0191 µM) | MIC ([1]; isolate 600790 N): 0.015 µg/mL (≈ 0.0191 µM) | MIC ([1]; isolate 600796 V): 0.015 µg/mL (≈ 0.0191 µM) | MIC ([1]; isolate 600831 9): 0.015 µg/mL (≈ 0.0191 µM) | MIC ([1]; isolate 600837 18): 0.015 µg/mL (≈ 0.0191 µM) | MIC ([1]; isolate 600861 P): 0.015 µg/mL (≈ 0.0191 µM) | MIC ([1]; isolate 602236 E3): 0.007 µg/mL (≈ 0.00891 µM) | MIC ([1]; isolate 602241 D): 0.015 µg/mL (≈ 0.0191 µM) | MIC ([1]; isolate 602241 F): 0.015 µg/mL (≈ 0.0191 µM) | MIC ([1]; isolate 602270 A): 0.015 µg/mL (≈ 0.0191 µM) | MIC ([1]; isolate 602282 I): 0.015 µg/mL (≈ 0.0191 µM) | MIC ([1]; isolate 602288 16): 0.015 µg/mL (≈ 0.0191 µM) | MIC ([1]; isolate 602302 22): 0.015 µg/mL (≈ 0.0191 µM) | MIC ([1]; isolate 602305 I): 0.015 µg/mL (≈ 0.0191 µM) | MIC ([1]; isolate 602324 8): 0.0075 µg/mL (≈ 0.00954 µM) | MIC ([1]; isolate 602672 12A): 0.015 µg/mL (≈ 0.0191 µM) | MIC Range ([2]; # tested 20): 3.75 to 30 ng/mL | Number of strains with indicated MIC ([2]; MIC 0.00375 μg/ml): 2 | Number of strains with indicated MIC ([2]; MIC 0.0075 μg/ml): 5 | Number of strains with indicated MIC ([2]; MIC 0.015 μg/ml): 12 | Number of strains with indicated MIC ([2]; MIC 0.03 μg/ml): 1 | MIC ([2]; Peptoniphilus lacrimalis, isolate 601028V 27A): 0.015 µg/mL (≈ 0.0191 µM) | MIC ([2]; Peptoniphilus lacrimalis, isolate 601060V 32A): 0.015 µg/mL (≈ 0.0191 µM) | MIC ([2]; Peptoniphilus lacrimalis, isolate 601078V O): 0.015 µg/mL (≈ 0.0191 µM) | MIC ([2]; Peptoniphilus lacrimalis, isolate 601084V c): 0.015 µg/mL (≈ 0.0191 µM) | MIC ([2]; Peptoniphilus lacrimalis, isolate 601105V 13): 0.015 µg/mL (≈ 0.0191 µM) | MIC ([2]; Peptoniphilus lacrimalis, isolate 601139V 17): 0.015 µg/mL (≈ 0.0191 µM) | MIC ([2]; Peptoniphilus lacrimalis, isolate 601213V 17): 0.015 µg/mL (≈ 0.0191 µM) | MIC ([2]; Peptoniphilus lacrimalis, isolate 601255V 12): 0.015 µg/mL (≈ 0.0191 µM) | MIC ([2]; Peptoniphilus lacrimalis, isolate 601261V O): 0.015 µg/mL (≈ 0.0191 µM) | MIC ([2]; Peptoniphilus lacrimalis, isolate 601293V 15): 0.03 µg/mL (≈ 0.0382 µM) | MIC ([2]; Peptoniphilus lacrimalis, isolate 601296V N): 0.015 µg/mL (≈ 0.0191 µM) | MIC ([2]; Peptoniphilus lacrimalis, isolate 601305V K-1): 0.0075 µg/mL (≈ 0.00954 µM) | MIC ([2]; Peptoniphilus lacrimalis, isolate 601318V E): 0.0075 µg/mL (≈ 0.00954 µM) | MIC ([2]; Peptoniphilus lacrimalis, isolate 601330V H): 0.015 µg/mL (≈ 0.0191 µM) | MIC ([2]; Peptoniphilus lacrimalis, isolate 601336V 47): 0.015 µg/mL (≈ 0.0191 µM) | MIC ([2]; Peptoniphilus lacrimalis, isolate 601365V 13): 0.0075 µg/mL (≈ 0.00954 µM) | MIC ([2]; Peptoniphilus lacrimalis, isolate 601368V 39): 0.0075 µg/mL (≈ 0.00954 µM) | MIC ([2]; Peptoniphilus lacrimalis, isolate 601375V E): 0.0075 µg/mL (≈ 0.00954 µM) | MIC ([2]; Peptoniphilus lacrimalis, isolate 601388V B): 0.00375 µg/mL (≈ 0.00477 µM) | MIC ([2]; Peptoniphilus lacrimalis, isolate 601401V I): 0.00375 µg/mL (≈ 0.00477 µM) | MIC50 [2, 6]: 0.015 µg/mL (≈ 0.0191 µM) | MIC90 [2, 6]: 0.015 µg/mL (≈ 0.0191 µM) | activity on Mobiluncus species [3]: had activity | MIC50 ([3]; # tested 40): 7.5 ng/mL (≈ 0.00954 µM) | MIC90 ([3]; # tested 40): 0.015 µg/mL (≈ 0.0191 µM) | MIC Range ([3]; # tested 40): 7.5 to 30 ng/mL | Susceptible ([3]; number (%) of isolates, # tested 40): 40 (100) μg/ml | Number of strains with indicated MIC ([4]; MIC 0.015 μg/ml): 12 | Number of strains with indicated MIC ([4]; MIC 0.03 μg/ml): 2 | MIC ([4]; individual isolates recovered from the vagina 2009-2012, one line per isolate (id in c0/c1 of the row), read-out: Minimal Inhibitory Concentration (MIC)): 0.015 µg/mL (≈ 0.0191 µM) | MIC Range ([5]; # tested 20): 0.125 to 16 µg/mL | MIC ([5]; Finegoldia magna, isolate 301303V D): 4 µg/mL (≈ 5.09 µM) | MIC ([5]; Finegoldia magna, isolate 601205V 39): 4 µg/mL (≈ 5.09 µM) | MIC ([5]; Finegoldia magna, isolate 601214V F): 8 µg/mL (≈ 10.2 µM) | MIC ([5]; Finegoldia magna, isolate 601275V c): 0.125 µg/mL (≈ 0.159 µM) | MIC ([5]; Finegoldia magna, isolate 601276V 23): 4 µg/mL (≈ 5.09 µM) | MIC ([5]; Finegoldia magna, isolate 601283V 14): 4 µg/mL (≈ 5.09 µM) | MIC ([5]; Finegoldia magna, isolate 601293V 27): 4 µg/mL (≈ 5.09 µM) | MIC ([5]; Finegoldia magna, isolate 601295V 25): 4 µg/mL (≈ 5.09 µM) | MIC ([5]; Finegoldia magna, isolate 601298V 30): 4 µg/mL (≈ 5.09 µM) | MIC ([5]; Finegoldia magna, isolate 601308V 24): 2 µg/mL (≈ 2.54 µM) | MIC ([5]; Finegoldia magna, isolate 601315V 17): 8 µg/mL (≈ 10.2 µM) | MIC ([5]; Finegoldia magna, isolate 601315V 17A): 8 µg/mL (≈ 10.2 µM) | MIC ([5]; Finegoldia magna, isolate 601320V 24): 16 µg/mL (≈ 20.4 µM) | MIC ([5]; Finegoldia magna, isolate 601323V K): 4 µg/mL (≈ 5.09 µM) | MIC ([5]; Finegoldia magna, isolate 601330V c): 16 µg/mL (≈ 20.4 µM) | MIC ([5]; Finegoldia magna, isolate 601335V c1): 4 µg/mL (≈ 5.09 µM) | MIC ([5]; Finegoldia magna, isolate 601340V 27): 8 µg/mL (≈ 10.2 µM) | MIC ([5]; Finegoldia magna, isolate 601359V c): 2 µg/mL (≈ 2.54 µM) | MIC ([5]; Finegoldia magna, isolate 601363V 6): 0.25 µg/mL (≈ 0.318 µM) | MIC ([5]; Finegoldia magna, isolate 601367V c): 16 µg/mL (≈ 20.4 µM) | MIC50 ([5]; Finegoldia magna, # tested 20): 4 µg/mL (≈ 5.09 µM) | MIC90 ([5]; Finegoldia magna, # tested 20): 16 µg/mL (≈ 20.4 µM) | Number of strains with indicated MIC ([5]; MIC 8 μg/ml): 4 | Number of strains with indicated MIC ([5]; MIC 16 μg/ml): 3 | Number of strains with indicated MIC ([5]; MIC […]): 1 | Susceptible ([5]; number (%) of isolates, # tested 20): 20 (100) μg/ml
